# Assay results taken from patent US9260416B2, “Heterocyclic autotaxin inhibitors and uses thereof” (AMIRA PHARMACEUTICALS, INC., priority 2011, dated 2016).
# Target: T1, autotaxin (Homo sapiens, UniProt Q13822)
# T1 construct: tissue Biocell Laboratories Inc 1121-00; host or cells: human serum (delipidated, dialyzed)
# Assay: Human Serum Autotaxin Assay (choline release from LPC, TOOS detection)
# Assay type: biochemical
# Conditions: dialyzed human serum; substrate LPC 14:0, 300 μM; 4 hours at 37° C.; choline release read at 555 nm
# Method: Human Serum Autotaxin Assay
# Inhibition of autotaxin activity is assayed in human serum by measuring the amount of choline released from the substrate, lysophosphatidylcholine (LPC). […] To assay for autotaxin inhibition, 20 μl of the dialyzed human serum is incubated with 2 μl test compound in DMSO and 73 μl lyso-PLD buffer (100 mM Tris pH 9, 500 mM NaCl, 5 mM MgCl2, 30 μM CoCl2, 0.05% Triton X-100) for 15 minutes at 37° C. […] 100 μl of a color mix which contains 4.5 mM 4-aminoantipyrine, 2.7 mM N-ethyl-N-(2-hydroxy-3-sulfopropyl)-m-toluidine, 21 units/ml Horseradish peroxidase and 3 units/ml choline oxidase in 50 mM Tris, pH 8, 4.5 mM MgCl2 is added and the incubation continued for 15 minutes at room temperature before reading the absorbance at 555 nm. The concentration of released choline in the sample is determined from a choline standard curve and is equal to the concentration of LPA produced.
row,IC50,SMILES
1,> 1000 nM,"Cc1[nH]c2cc(Cl)ccc2c1Sc1cncc(C(=O)O)c1 [Compound 1-1, 5-(6-Chloro-2-methyl-1H-indol-3-ylsulfanyl)-nicotinic acid]"
2,> 1000 nM,"Cc1c(Sc2cncc(C(=O)O)c2)c2ccc(Cl)cc2n1Cc1ccccc1 [Compound 1-2, 5-(1-Benzyl-6-chloro-2-methyl-1H-indol-3-ylsulfanyl)-nicotinic acid]"
3,< 300 nM,"Cc1c(Sc2cncc(C(=O)O)c2)c2ccc(Cl)cc2n1-c1cnn(C)c1 [Compound 1-3, 5-[6-Chloro-2-methyl-1-(1-methyl-1H-pyrazol-4-yl)-1H-indol-3-ylsulfanyl]-nicotinic acid]"
4,< 300 nM,"CCn1cc(-n2c(C)c(Sc3cncc(C(=O)O)c3)c3ccc(Cl)cc32)cn1 [Compound 1-4, 5-[6-Chloro-1-(1-ethyl-1H-pyrazol-4-yl)-2-methyl-1H-indol-3-ylsulfanyl]-nicotinic acid]"
5,< 300 nM,"Cc1c(Sc2cncc(C(=O)O)c2)c2ccc(Cl)cc2n1-c1cnn(C(C)C)c1 [Compound 1-5, 5-[6-Chloro-1-(1-isopropyl-1H-pyrazol-4-yl)-2-methyl-1H-indol-3-ylsulfanyl]-nicotinic acid]"
6,> 1000 nM,"Cc1c(Sc2cc(C(=O)O)ccn2)c2ccc(Cl)cc2n1-c1cnn(C)c1 [Compound 1-6, 2-[6-Chloro-2-methyl-1-(1-methyl-1H-pyrazol-4-yl)-1H-indol-3-ylsulfanyl]-isonicotinic acid]"
7,< 300 nM,"CCn1cc(-n2c(C)c(Sc3cc(C(=O)O)ccn3)c3ccc(Cl)cc32)cn1 [Compound 1-7, 2-[6-Chloro-1-(1-ethyl-1H-pyrazol-4-yl)-2-methyl-1H-indol-3-ylsulfanyl]-isonicotinic acid]"
8,300 to 1000 nM,"Cc1c(Sc2cc(C(=O)O)ccn2)c2ccc(Cl)cc2n1-c1cnn(C(C)C)c1 [Compound 1-8, 2-[6-Chloro-1-(1-isopropyl-1H-pyrazol-4-yl)-2-methyl-1H-indol-3-ylsulfanyl]-isonicotinic acid]"
9,< 300 nM,"CCn1cc(-n2c(C)c(Sc3cccc(C(=O)O)n3)c3ccc(Cl)cc32)cn1 [Compound 1-9, 6-[6-Chloro-1-(1-ethyl-1H-pyrazol-4-yl)-2-methyl-1H-indol-3-ylsulfanyl]-pyridine-2-carboxylic acid]"
10,< 300 nM,"Cc1c(Sc2cccc(C(=O)O)n2)c2ccc(Cl)cc2n1-c1cnn(C)c1 [Compound 1-10, 6-[6-Chloro-2-methyl-1-(1-methyl-1H-pyrazol-4-yl)-1H-indol-3-ylsulfanyl]-pyridine-2-carboxylic acid]"
11,< 300 nM,"CCCn1cc(-n2c(C)c(Sc3cccc(C(=O)O)n3)c3ccc(Cl)cc32)cn1 [Compound 1-11, 6-[6-Chloro-2-methyl-1-(1-propyl-1H-pyrazol-4-yl)-1H-indol-3-ylsulfanyl]-pyridine-2-carboxylic acid]"
12,< 300 nM,"CCn1cc(-n2c(C)c(Sc3cccc(C(=O)O)n3)c3ccc(Cl)c(F)c32)cn1 [Compound 1-12, 6-[6-Chloro-1-(1-ethyl-1H-pyrazol-4-yl)-7-fluoro-2-methyl-1H-indol-3-ylsulfanyl]-pyridine-2-carboxylic acid]"
13,< 300 nM,"Cc1c(Sc2cccc(C(=O)O)n2)c2ccc(Cl)c(F)c2n1-c1cnn(C(C)C)c1 [Compound 1-13, 6-[6-Chloro-7-fluoro-1-(1-isopropyl-1H-pyrazol-4-yl)-2-methyl-1H-indol-3-ylsulfanyl]-pyridine-2-carboxylic acid]"
14,< 300 nM,"Cc1c(Sc2cccc(C(=O)O)n2)c2ccc(Cl)cc2n1-c1cnn(C(C)C)c1 [Compound 1-14, 6-[6-Chloro-1-(1-isopropyl-1H-pyrazol-4-yl)-2-methyl-1H-indol-3-ylsulfanyl]-pyridine-2-carboxylic acid]"
15,< 300 nM,"CCCn1cc(-n2c(C)c(Sc3cccc(C(=O)O)n3)c3ccc(Cl)c(F)c32)cn1 [Compound 1-15, 6-[6-Chloro-7-fluoro-2-methyl-1-(1-propyl-1H-pyrazol-4-yl)-1H-indol-3-ylsulfanyl]-pyridine-2-carboxylic acid]"
16,< 300 nM,"CCn1cc(-n2c(C)c(Sc3cnn(CC(=O)O)c3)c3ccc(Cl)c(F)c32)cn1 [Compound 1-16, {4-[6-Chloro-1-(1-ethyl-1H-pyrazol-4-yl)-7-fluoro-2-methyl-1H-indol-3-ylsulfanyl]-pyrazol-1-yl}-acetic acid]"
17,< 300 nM,"CCn1cc(-n2c(C)c(Sc3cccc(CC(=O)O)n3)c3ccc(Cl)c(F)c32)cn1 [Compound 1-17, {6-[6-Chloro-1-(1-ethyl-1H-pyrazol-4-yl)-7-fluoro-2-methyl-1H-indol-3-ylsulfanyl]-pyridin-2-yl}-acetic acid]"
18,< 300 nM,"CCCn1cc(-n2c(C)c(Sc3cccc(CC(=O)O)n3)c3ccc(Cl)c(F)c32)cn1 [Compound 1-18, {6-[6-Chloro-7-fluoro-2-methyl-1-(1-propyl-1H-pyrazol-4-yl)-1H-indol-3-ylsulfanyl]-pyridin-2-yl}-acetic acid]"
